What was measured:
Settings in all cases: 50 μl of 1 U/ml enzyme, 10 minutes
PCase (PCase Type I) = assay: Paper disk colour-change test, reactivity against β-lactamases (PCase); type: biochemical, B. cereus; parameters: key: −: negative; +: positive; ++: highly positive
Procedure: (§1) Each of the test compounds is dissolved in dimethyl sulfoxide. Paper disks with a diameter of 8 mm containing the test compounds in an amount of 5 or 25 μg per disk were prepared and dried in air. Each of these disks was added dropwise with a solution of β-lactamases (50 μl) prepared to a concentration of 1 U/ml with distilled water and allowed for 10 minutes.
(§2) PCase is an enzyme isolated from B. cereus (production of Sigma Chemical Co. :PCase Type I); and CEPase, from E. cloacae (production of Sigma chemical Co. :CEPase Type IV).

ESBL = assay: Paper disk colour-change test, reactivity against β-lactamases (ESBL); type: biochemical; parameters: key to Reactivity against β-lactamases: ESBL: −: negative; +: positive; ++: highly positive
Procedure: as §1

CEPase (CEPase Type IV) = target: T1, CEPase (CEPase Type IV) (Enterobacter cloacae, UniProt P05364); assay: Paper disk colour-change test, reactivity against β-lactamases (CEPase); type: biochemical, E. cloacae; parameters: key: −: negative; +: positive; ++: highly positive
T1 construct: purchased Sigma chemical Co. CEPase Type IV; host or cells: isolated from E. cloacae
Procedure: as §1, §2

T1 sequence (P05364 21-381): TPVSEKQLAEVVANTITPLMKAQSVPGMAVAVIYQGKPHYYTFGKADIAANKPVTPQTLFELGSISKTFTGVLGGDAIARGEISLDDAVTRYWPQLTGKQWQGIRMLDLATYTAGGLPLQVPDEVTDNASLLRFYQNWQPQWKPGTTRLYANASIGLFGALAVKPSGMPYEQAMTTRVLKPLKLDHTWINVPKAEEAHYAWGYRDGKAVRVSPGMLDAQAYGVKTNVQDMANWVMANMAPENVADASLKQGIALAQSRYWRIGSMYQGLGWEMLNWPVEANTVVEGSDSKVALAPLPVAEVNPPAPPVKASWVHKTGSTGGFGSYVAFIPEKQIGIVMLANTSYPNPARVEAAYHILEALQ

CC(C)(ON=C(C(=O)NC1C(=O)N2C(C(=O)O)=C(C=Cc3ccc([N+](=O)[O-])cc3[N+](=O)[O-])CS[C@H]12)c1csc(N)n1)C(=O)O (stereo partly shown) [compound 1, 7-[2-(2-aminothiazol-4-yl)-2-(1-carboxy-1-methylethoxyimino)acetamido]-3-(2,4-dinitrostyryl)-3-cephem-4-carboxylic acid]
Reactivity against β-lactamases: PCase (PCase (PCase Type I); content 5 μg/disk): −
Reactivity against β-lactamases: ESBL (ESBL; content 5 μg/disk): ++
color change (ESBL; content 5 μg/disk): pale yellow → red
Reactivity against β-lactamases: CEPase (CEPase (CEPase Type IV); content 5 μg/disk): −

CC(C)(ON=C(C(=O)NC1C(=O)N2C(C(=O)O)=C(C=Cc3ccc([N+](=O)[O-])cc3)CS[C@H]12)c1csc(N)n1)C(=O)O (stereo partly shown) [compound 2, 7-[2-(2-aminothiazol-4-yl)-2-(1-carboxy-1-methylethoxyimino)acetamido]-3-(4-nitrostyryl)-3-cephem-4-carboxylic acid]
Reactivity against β-lactamases: PCase (PCase (PCase Type I); content 5 μg/disk): −
Reactivity against β-lactamases: ESBL (ESBL; content 5 μg/disk): +
color change (ESBL; content 5 μg/disk): pale yellow → orange
Reactivity against β-lactamases: CEPase (CEPase (CEPase Type IV); content 5 μg/disk): −

CC(C)(ON=C(C(=O)NC1C(=O)N2C(C(=O)O)=C(C=Cc3ccc(C#N)cc3)CS[C@H]12)c1csc(N)n1)C(=O)O (stereo partly shown) [compound 3, 7-[2-(2-aminothiazol-4-yl)-2-(1-carboxy-1-methylethoxyimino)acetamido]-3-(4-cyanostyryl)-3-cephem-4-carboxylic acid]
Reactivity against β-lactamases: PCase (PCase (PCase Type I); content 25 μg/disk): −
Reactivity against β-lactamases: ESBL (ESBL; content 25 μg/disk): +
color change (ESBL; content 25 μg/disk): pale yellow → golden
Reactivity against β-lactamases: CEPase (CEPase (CEPase Type IV); content 25 μg/disk): −

CON=C(C(=O)NC1C(=O)N2C(C(=O)O)=C(C=Cc3ccc([N+](=O)[O-])cc3)CS[C@H]12)c1csc(N)n1 (stereo partly shown) [compound 4, 7-[2-(2-aminothiazol-4-yl)-2-methoxyiminoacetamido]-3-(4-nitrostyryl)-3-cephem-4-carboxylic acid]
Reactivity against β-lactamases: PCase (PCase (PCase Type I); content 5 μg/disk): −
Reactivity against β-lactamases: ESBL (ESBL; content 5 μg/disk): ++
color change (ESBL; content 5 μg/disk): pale yellow → orange
Reactivity against β-lactamases: CEPase (CEPase (CEPase Type IV); content 5 μg/disk): −

Nc1nc(C(=NOCC(=O)O)C(=O)NC2C(=O)N3C(C(=O)O)=C(C=Cc4ccc([N+](=O)[O-])cc4[N+](=O)[O-])CS[C@H]23)cs1 (stereo partly shown) [compound 5, 7-[2-(2-aminothiazol-4-yl)-2-carboxymethoxyiminoacetamido]-3-(2,4-dinitrostyryl)-3-cephem-4-carboxylic acid]
Reactivity against β-lactamases: PCase (PCase (PCase Type I); content 5 μg/disk): −
Reactivity against β-lactamases: ESBL (ESBL; content 5 μg/disk): ++
color change (ESBL; content 5 μg/disk): pale yellow → red
Reactivity against β-lactamases: CEPase (CEPase (CEPase Type IV); content 5 μg/disk): −

Nc1nc(C(=NOCC(=O)O)C(=O)NC2C(=O)N3C(C(=O)O)=C(C=Cc4ccc([N+](=O)[O-])cc4)CS[C@H]23)cs1 (stereo partly shown) [compound 6, 7-[2-(2-aminothiazol-4-yl)-2-carboxymethoxyiminoacetamido]-3-(4-nitrostyryl)-3-cephem-4-carboxylic acid]
Reactivity against β-lactamases: PCase (PCase (PCase Type I); content 5 μg/disk): −
Reactivity against β-lactamases: ESBL (ESBL; content 5 μg/disk): ++
color change (ESBL; content 5 μg/disk): pale yellow → orange
Reactivity against β-lactamases: CEPase (CEPase (CEPase Type IV); content 5 μg/disk): −

O=C(Cc1cccs1)NC1C(=O)N2C(C(=O)O)=C(C=Cc3ccc([N+](=O)[O-])cc3[N+](=O)[O-])CS[C@H]12 (stereo partly shown) [compound A, 3-(2,4-dinitrostyryl)-7-(2-thienylacetamido)-3-cephem-4-carboxylic acid, reference compound]
Reactivity against β-lactamases: PCase (PCase (PCase Type I); content 5 μg/disk): ++
Reactivity against β-lactamases: ESBL (ESBL; content 5 μg/disk): ++
color change (ESBL; content 5 μg/disk): pale yellow → red
Reactivity against β-lactamases: CEPase (CEPase (CEPase Type IV); content 5 μg/disk): ++
